# Measurements taken from PubChem BioAssay (NCI).
#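 1) Cells in 96-well plates. 2) Compound, 48 h, 5 concentrations. 3) Linear interpolation between surrounding doses. 4) Unreached endpoint = highest concentration. The concentration for full growth arrest is given as TGI.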
# What was measured:
# Assay in all cases: NCI anticancer screen, dose series, 48 h
# [1] = test system: IGROV1 ovarian
# [2] = test system: SNB-19 CNS
# [3] = test system: HL-60(TB) leukemia
# [4] = test system: SK-OV-3 ovarian
# [5] = test system: SW-620 colon
# [6] = test system: COLO 205 colon
# [7] = test system: HCT-15 colon
# [8] = test system: SF-295 CNS
# [9] = test system: OVCAR-5 ovarian
# [10] = test system: M19-MEL melanoma
# [11] = test system: CAKI-1 renal
# [12] = test system: HOP-62 NSCLC
# [13] = test system: MALME-3M melanoma
# [14] = test system: SF-268 CNS
# [15] = test system: ACHN renal
# [16] = test system: CCRF-CEM leukemia
# [17] = test system: DMS 273 small cell lung
# [18] = test system: HOP-18 NSCLC
# [19] = test system: A498 renal
# [20] = test system: XF 498 CNS
# [21] = test system: RXF 393 renal
# [22] = test system: OVCAR-8 ovarian
# [23] = test system: SNB-78 CNS
# [24] = test system: SK-MEL-2 melanoma
# [25] = test system: HOP-92 NSCLC
# [26] = test system: UACC-62 melanoma
# [27] = test system: EKVX NSCLC
# [28] = test system: K-562 leukemia
# [29] = test system: LXFL 529 NSCLC
# [30] = test system: HCT-116 colon
# [31] = test system: TK-10 renal
# [32] = test system: NCI-H522 lung
# [33] = test system: DLD-1 colon
# [34] = test system: SNB-75 CNS
# [35] = test system: HT29 colon
# [36] = test system: LOX IMVI melanoma
# [37] = test system: UO-31 renal
# [38] = test system: NCI-H460 lung
# [39] = test system: 786-0 renal
# [40] = test system: SF-539 CNS
# [41] = test system: SR leukemia
# [42] = test system: OVCAR-3 ovarian
# [43] = test system: A549 NSCLC
# [44] = test system: KM12 colon
# [45] = test system: SK-MEL-28 melanoma
# [46] = test system: U251 CNS
# [47] = test system: M14 melanoma
# [48] = test system: SN12C renal
# [49] = test system: UACC-257 melanoma
# [50] = test system: OVCAR-4 ovarian
# [51] = test system: NCI-H23 lung
# [52] = test system: NCI-H226 lung
# [53] = test system: RPMI-8226 leukemia
# [54] = test system: KM20L2 colon
# [55] = test system: HCC-2998 colon
# [56] = test system: MOLT-4 leukemia
# [57] = test system: MDA-MB-231 breast
# [58] = test system: HS 578T breast
# [59] = test system: SK-MEL-5 melanoma
# [60] = test system: MCF7 breast
# [61] = test system: MDA-MB-435
# [62] = test system: T-47D breast
# [63] = test system: NCI/ADR-RES ovarian
# [64] = test system: BT-549 breast
# [65] = test system: MDA-N
# [66] = test system: PC-3 prostate
# [67] = test system: DU-145 prostate
# [68] = test system: DMS 114 small cell lung
smiles,measurement,setting,value
N#Cc1cccc(/C=N/N=C(\N)NO)c1,TGI,[1],> 100 µM
same,TGI,[2],> 100 µM
same,TGI,[3],> 100 µM
same,TGI,[4],> 100 µM
same,TGI,[5],> 100 µM
same,TGI,[6],> 100 µM
same,TGI,[7],> 100 µM
same,TGI,[8],> 100 µM
same,TGI,[9],> 100 µM
same,TGI,[10],> 100 µM
same,TGI,[11],> 100 µM
same,TGI,[12],> 100 µM
same,TGI,[13],> 100 µM
same,TGI,[14],> 100 µM
same,TGI,[15],> 100 µM
same,TGI,[16],> 100 µM
same,TGI,[17],> 100 µM
same,TGI,[18],> 100 µM
same,TGI,[19],> 100 µM
same,TGI,[20],> 100 µM
same,TGI,[21],> 100 µM
same,TGI,[22],> 100 µM
same,TGI,[23],> 100 µM
same,TGI,[24],> 100 µM
same,TGI,[25],> 100 µM
same,TGI,[26],52.8 µM
same,TGI,[27],> 100 µM
same,TGI,[28],> 100 µM
same,TGI,[29],> 100 µM
same,TGI,[30],> 100 µM
same,TGI,[31],> 100 µM
same,TGI,[32],> 100 µM
same,TGI,[33],> 100 µM
same,TGI,[34],> 100 µM
same,TGI,[35],> 100 µM
same,TGI,[36],> 100 µM
same,TGI,[37],> 100 µM
same,TGI,[38],> 100 µM
same,TGI,[39],> 100 µM
same,TGI,[40],> 100 µM
same,TGI,[41],> 100 µM
same,TGI,[42],> 100 µM
same,TGI,[43],> 100 µM
same,TGI,[44],> 100 µM
same,TGI,[45],> 100 µM
same,TGI,[46],> 100 µM
same,TGI,[47],> 100 µM
same,TGI,[48],> 100 µM
same,TGI,[49],> 100 µM
same,TGI,[50],> 100 µM
same,TGI,[51],> 100 µM
same,TGI,[52],> 100 µM
O=C(Nc1ccc([N+](=O)[O-])cc1Cl)c1cccc([N+](=O)[O-])c1O,TGI,[2],> 100 µM
same,TGI,[3],5.43 µM
same,TGI,[5],> 100 µM
same,TGI,[53],5.78 µM
same,TGI,[8],6.26 µM
same,TGI,[9],> 100 µM
same,TGI,[54],10.2 µM
same,TGI,[11],5.21 µM
same,TGI,[13],4.73 µM
same,TGI,[14],27.3 µM
same,TGI,[15],48.1 µM
same,TGI,[16],> 100 µM
same,TGI,[55],20.9 µM
same,TGI,[19],3.66 µM
same,TGI,[23],9.75 µM
same,TGI,[24],6.1 µM
same,TGI,[27],6.54 µM
same,TGI,[28],12.5 µM
same,TGI,[29],13.6 µM
same,TGI,[32],4.32 µM
same,TGI,[35],79.7 µM
same,TGI,[36],14.5 µM
same,TGI,[37],5.58 µM
same,TGI,[38],13.3 µM
same,TGI,[40],10.9 µM
same,TGI,[41],18.9 µM
same,TGI,[43],7.31 µM
same,TGI,[44],15.3 µM
same,TGI,[45],19.4 µM
same,TGI,[46],> 100 µM
same,TGI,[56],28.3 µM
same,TGI,[48],8.09 µM
same,TGI,[49],6.95 µM
same,TGI,[50],45.3 µM
same,TGI,[51],4.01 µM
same,TGI,[52],9.31 µM
O=C1C(Cl)=C(Nc2ccc(S(=O)(=O)Nc3ccccn3)cc2)C(=O)c2ccccc21,TGI,[1],23.1 µM
same,TGI,[2],38.7 µM
same,TGI,[3],> 50.5 µM
same,TGI,[4],43 µM
same,TGI,[5],> 73.5 µM
same,TGI,[6],27.8 µM
same,TGI,[57],22 µM
same,TGI,[53],15.4 µM
same,TGI,[7],23.2 µM
same,TGI,[8],35.2 µM
same,TGI,[58],48 µM
same,TGI,[9],> 46.9 µM
same,TGI,[59],11.4 µM
same,TGI,[11],> 52.1 µM
same,TGI,[12],29.9 µM
same,TGI,[13],7.6 µM
same,TGI,[14],29.3 µM
same,TGI,[15],31.2 µM
same,TGI,[16],> 25.5 µM
same,TGI,[55],24.8 µM
same,TGI,[19],45.1 µM
same,TGI,[21],22.6 µM
same,TGI,[22],15.9 µM
same,TGI,[60],12.9 µM
same,TGI,[24],15.3 µM
same,TGI,[61],14 µM
same,TGI,[25],15.4 µM
same,TGI,[26],11.8 µM
same,TGI,[27],31.7 µM
same,TGI,[62],39.7 µM
same,TGI,[28],16.5 µM
same,TGI,[30],18.8 µM
same,TGI,[31],22.7 µM
same,TGI,[63],> 40.9 µM
same,TGI,[32],13.7 µM
same,TGI,[34],21.9 µM
same,TGI,[35],22.3 µM
same,TGI,[36],4.59 µM
same,TGI,[37],29 µM
same,TGI,[38],19.2 µM
same,TGI,[39],26.1 µM
same,TGI,[64],29.8 µM
same,TGI,[65],13.9 µM
same,TGI,[40],10.3 µM
same,TGI,[41],16.2 µM
same,TGI,[42],15.6 µM
same,TGI,[43],41.9 µM
same,TGI,[44],32.4 µM
same,TGI,[45],42.9 µM
same,TGI,[46],19.3 µM
same,TGI,[56],25.5 µM
same,TGI,[47],15.4 µM
same,TGI,[48],30.4 µM
same,TGI,[49],10.3 µM
same,TGI,[50],> 53.6 µM
same,TGI,[51],25.2 µM
same,TGI,[66],27 µM
same,TGI,[67],25.9 µM
same,TGI,[52],42.1 µM
Cc1cc2c([nH]c3ccccc32)c2c1OC(C)(C)C1C3CC(C)(C)Oc4c(C)cc5c6ccccc6n(c5c43)C21 (configuration not stated),TGI,[1],> 100 µM
same,TGI,[2],> 100 µM
same,TGI,[3],> 100 µM
same,TGI,[4],> 100 µM
same,TGI,[5],> 100 µM
same,TGI,[6],> 100 µM
same,TGI,[53],> 100 µM
same,TGI,[7],> 100 µM
same,TGI,[8],> 100 µM
same,TGI,[9],> 100 µM
same,TGI,[10],> 100 µM
same,TGI,[54],> 100 µM
same,TGI,[59],> 100 µM
same,TGI,[11],> 100 µM
same,TGI,[12],> 100 µM
same,TGI,[13],> 100 µM
same,TGI,[14],> 100 µM
same,TGI,[15],> 100 µM
same,TGI,[16],> 100 µM
same,TGI,[17],> 100 µM
same,TGI,[55],> 100 µM
same,TGI,[68],> 100 µM
same,TGI,[18],> 100 µM
same,TGI,[19],> 100 µM
same,TGI,[21],> 100 µM
same,TGI,[22],> 100 µM
same,TGI,[23],> 100 µM
same,TGI,[24],> 100 µM
same,TGI,[25],> 100 µM
same,TGI,[26],> 100 µM
same,TGI,[27],> 100 µM
same,TGI,[28],> 100 µM
same,TGI,[29],> 100 µM
same,TGI,[30],> 100 µM
same,TGI,[31],> 100 µM
same,TGI,[32],> 100 µM
same,TGI,[34],> 100 µM
same,TGI,[35],> 100 µM
same,TGI,[36],> 100 µM
same,TGI,[37],> 100 µM
same,TGI,[38],> 100 µM
same,TGI,[39],> 100 µM
same,TGI,[40],> 100 µM
same,TGI,[41],> 100 µM
same,TGI,[42],> 100 µM
same,TGI,[43],> 100 µM
same,TGI,[44],> 100 µM
same,TGI,[45],> 100 µM
same,TGI,[46],> 100 µM
same,TGI,[56],> 100 µM
same,TGI,[47],> 100 µM
same,TGI,[48],> 100 µM
same,TGI,[49],> 100 µM
same,TGI,[50],> 100 µM
same,TGI,[51],> 100 µM
